This note sets out measurements from patent US5192799A, “Coumaran group containing amine compounds and their acid addition salts and quaternary ammonium salts and the use thereof as anti arrhythmic agents and as psychotropic agents” (Mitsui Petrochemical Industries, Ltd., priority 1987, dated 1993).

T1 sequence (P14842 whole entry): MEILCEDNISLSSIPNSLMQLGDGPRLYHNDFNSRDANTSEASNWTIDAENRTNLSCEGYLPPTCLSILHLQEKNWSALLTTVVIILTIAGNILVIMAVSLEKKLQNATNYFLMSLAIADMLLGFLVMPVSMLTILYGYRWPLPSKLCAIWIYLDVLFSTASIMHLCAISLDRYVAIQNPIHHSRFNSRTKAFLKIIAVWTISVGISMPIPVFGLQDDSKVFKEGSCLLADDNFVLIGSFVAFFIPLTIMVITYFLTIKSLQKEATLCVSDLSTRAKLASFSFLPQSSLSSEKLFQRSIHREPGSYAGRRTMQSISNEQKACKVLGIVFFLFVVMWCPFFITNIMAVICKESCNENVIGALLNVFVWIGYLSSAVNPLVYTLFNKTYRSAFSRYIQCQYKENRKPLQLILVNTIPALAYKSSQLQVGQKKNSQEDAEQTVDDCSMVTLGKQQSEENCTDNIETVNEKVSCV

The first assay concerns the target T1, serotonine 2 receptor (Rattus norvegicus, UniProt P14842).
T1 construct: frontal cortex fraction prepared from the brain of a Wistar male rat; from tissue; host or cells: rat brain frontal cortex (Wistar, male), membrane fraction
Briefly: [3H]ketanserin binding assay (affinity for serotonine 2 receptor). The arrangement: species or system Wistar male rat. Conditions: rat frontal cortex, 1 nM [3H] ketanserin, 37° C., 10 minutes. The procedure:
(§1) Striatal membranes fractions were prepared from a rat brain, and the affinity of the compounds of this invention on dopamine 2 receptors was determined by using [^3 H] spiperone assay from membranes fractions as an index. Moreover, frontal cortex membranes were prepared from a rat brain, and the affinity of the test drugs on serotonine 2 receptor was determined by using [^3 H] ketenserin binding assay. It was shown that the compounds of general formula (1) of the invention have marked anti-dopamine activity and anti-serotonine activity.
[^3 H] ketanserin binding assay
The affinity of the compound of the invention was determined on the basis of the ability to substitute [^3 H] ketanserin from a frontal cortex fraction prepared from the brain of a Wistar male rat.
The rat was decapitated, and the brain was obtained. The frontal cortex was homogenized in 40 volumes of 50 mM Tris-HCl buffer (pH 7.6), and then centrifuged. The pellets were again homogenized in 100 volumes of the same buffer, and used in a binding test. The binding test was conducted by the following procedure.
The frontal cortex (original tissue weight 1 mg/ml), 100 microliters of a test drug and 1 nM of [^3 H] ketanserin were incubated at 37° C. for 10 minutes in 50 mM Tris-HCl buffer (pH 7.6). Then, the reaction mixture was suction-filtered through a glass fiber filter (Watmann GF/B) and washed with a buffer three times.
The filter was put in a scintillation cocktail (ACSII, Amersham Co.), and after mixing, left to stand overnight. The radioactivity held on the filter was measured by a liquid scintillation counter. The nonspecific binding was measured in the presence of 1 μM of methysergide. The concentration of the test drug which inhibited 50% of a specific binding was determined from the graph and defined as IC5. Ki was calculated from the following equation. [formula]
For the compound `O=C1COc2cc(OCCCN3CCC(O)(c4ccc(Cl)cc4)CC3)ccc21` [Compound 1154], the Ki is more than 298 nM.
The same measure, in the same setting: as for `O=C1COc2cc(OCCCN3CCc4ccccc4C3)ccc21` [Compound 1162], the figure is more than 600 nM.
Same read-out and setting: the result for `CN1CCN(CCCOc2ccc3c(c2)OCC3=O)CC1` [Compound 1178] reads more than 600 nM; that for `O=C1COc2cc(OCCCN3CCN(Cc4ccccc4)CC3)ccc21` [Compound 1182], more than 600 nM.
For `CN1C(=O)Cc2cnc(N3CCN(CCCOc4ccc5c(c4)OCC5=O)CC3)nc21` [Compound 1186], the Ki worked out at 315 nM.
The same measure, in the same setting: the result for `O=C1COc2cc(OCCCN3CCC(N4CCCCC4)CC3)ccc21` [Compound 1228] reads more than 600 nM.
The same measure, in the same setting: the result for `O=C1COc2cc(OCCCN3CCC4(CC3)C(=O)NCN4c3ccccc3)ccc21` [Compound 1246] reads more than 600 nM; that for `O=C1COc2cc(OCCCN3CCN(c4ccccn4)CC3)ccc21` [Compound 1264], more than 600 nM; that for `O=c1cc(-c2ccccc2)c2ccc(OCCCN3CCC(Cc4ccccc4)CC3)cc2o1` [Compound 1330], more than 600 nM.
`O=C1NC(=O)c2cc(OCCCN3CCC(Cc4ccccc4)CC3)ccc21` [Compound 1334] registered a Ki of 227 nM.
Still for that read-out and setting: as for `CC(=O)Oc1coc2cc(OCCCN3CCC(Cc4ccccc4)CC3)ccc12` [Compound 1344], the figure is more than 600 nM.

The target in another assay is T2, dopamine 2 receptor (Rattus norvegicus, UniProt P61169).
T2 construct: membrane fractions prepared from the brain a Wistarstrain male rat; from tissue; host or cells: rat brain striatum (Wistar, male), membrane fraction
T2 sequence (P61169 whole entry): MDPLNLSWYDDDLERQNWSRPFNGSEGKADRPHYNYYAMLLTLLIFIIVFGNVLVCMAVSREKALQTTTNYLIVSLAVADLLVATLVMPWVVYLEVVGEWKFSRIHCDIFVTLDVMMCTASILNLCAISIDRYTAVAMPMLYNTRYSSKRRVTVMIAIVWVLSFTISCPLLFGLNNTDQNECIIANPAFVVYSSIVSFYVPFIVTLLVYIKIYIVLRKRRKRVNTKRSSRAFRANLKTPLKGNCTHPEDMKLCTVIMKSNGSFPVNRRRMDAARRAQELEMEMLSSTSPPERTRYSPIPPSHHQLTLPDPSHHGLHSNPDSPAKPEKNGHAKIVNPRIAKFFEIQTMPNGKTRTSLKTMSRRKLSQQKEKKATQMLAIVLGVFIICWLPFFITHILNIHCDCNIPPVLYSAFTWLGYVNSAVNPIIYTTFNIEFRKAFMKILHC
Briefly: [3H]spiperone binding assay (affinity for dopamine 2 receptor). Conditions: rat striatal membranes, 0.5 nM [3H] spiperone, 37° C., 10 minutes. Set-up: species or system Wistar-strain male rat. The protocol: as §1
[^3 H]spiperone binding assay
The affinity of the compounds of this invention to the dopamine 2 receptor was determined on the basis of the ability to substitute [^3 H] spiperone from stratal membrane fractions prepared from the brain a Wistarstrain male rat.
The rat was decapitated, and the brain was obtained. The striatum was homogenized in 40 volumes of 50 mM Tris-HCl buffer (pH 7.6), and then centrifuged. The pellets were again homogenized in 50 volumes of the same buffer, and used in a binding test. The binding test was conducted by the following procedure.
The stria (original tissue weight 20 mg/ml), 100 microliters of a test drug and 0.5 nM of [^3 H] spiperone were incubated at 37° C. for 10 minutes in 50 mM Tris-HCl buffer (pH 7.6). Then, the reaction mixture was suction-filtered through a glass fiber filter (Watmann GF/B) and washed with a buffer three times.
The filter was put in a scintillation cocktail (ACSII, Amersham Co.), and after mixing, left to stand overnight. The radioactivity held on the filter was measured by a liquid scintillation counter. The nonspecific binding was measured in the presence of 1 μM of (+) butaclamol. The concentration of the test drug which inhibited 50% of a specific binding was determined from the graph and defined as IC50. Ki was calculated from the following equation. [formula]
For the compound `O=C1COc2cc(OCCCN3CCC(O)(c4ccc(Cl)cc4)CC3)ccc21` [Compound 1154], the Ki was more than 400 nM.
Still for that read-out and setting: the result for `O=C1COc2cc(OCCCN3CCc4ccccc4C3)ccc21` [Compound 1162] reads more than 400 nM; that for `CN1CCN(CCCOc2ccc3c(c2)OCC3=O)CC1` [Compound 1178], more than 400 nM; that for `O=C1COc2cc(OCCCN3CCN(Cc4ccccc4)CC3)ccc21` [Compound 1182], more than 400 nM.
Take `CN1C(=O)Cc2cnc(N3CCN(CCCOc4ccc5c(c4)OCC5=O)CC3)nc21` [Compound 1186]: the Ki is more than 400 nM.
Still for that read-out and setting: the result for `O=C1COc2cc(OCCCN3CCC(N4CCCCC4)CC3)ccc21` [Compound 1228] reads more than 400 nM; that for `O=C1COc2cc(OCCCN3CCC4(CC3)C(=O)NCN4c3ccccc3)ccc21` [Compound 1246], more than 400 nM.
Still for that read-out and setting: as for `O=C1COc2cc(OCCCN3CCN(c4ccccn4)CC3)ccc21` [Compound 1264], the figure is more than 400 nM.
Same read-out and setting: as for `O=c1cc(-c2ccccc2)c2ccc(OCCCN3CCC(Cc4ccccc4)CC3)cc2o1` [Compound 1330], the figure is more than 400 nM.
`O=C1NC(=O)c2cc(OCCCN3CCC(Cc4ccccc4)CC3)ccc21` [Compound 1334] came in with a Ki of more than 400 nM.
Same read-out and setting: the result for `CC(=O)Oc1coc2cc(OCCCN3CCC(Cc4ccccc4)CC3)ccc12` [Compound 1344] reads more than 400 nM.
